US8889676B2, “3-ureidoisoquinolin-8-yl derivatives” (Actelion Pharmaceuticals Ltd., priority 2011, dated 2014)
Values after ≈ are worked out from the molar mass of the structure shown.

System: S. pneumoniae ATCC 49619
Test: Minimal inhibitory concentration (MIC) by broth microdilution (CLSI M7-A7)
Assay type: cell-based, Streptococcus pneumoniae
Conditions: Streptococcus pneumoniae, ATCC49619; cation-adjusted Mueller Hinton Broth supplemented with 3% (v/v) lysed horse blood; microdilution method
In short: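 Broth microdilution per CLSI M7-A7 in cation-adjusted Mueller-Hinton broth with 3% (v/v) lysed horse blood for S. pneumoniae. MIC in mg/l.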

| MIC | Structure (SMILES) |
| --- | --- |
| 4 µg/mL (≈ 8.36 µM) | CCNC(=O)Nc1cc2c(-c3ccnc(CCC(=O)N(C)C)c3)ccc(CNC(=O)OC)c2cn1 [Example 196, [5-[2-(2-dimethylcarbamoyl-ethyl)-pyridin-4-yl]-3-(3-ethyl-ureido)-isoquinolin-8-ylmethyl]-carbamic acid methyl ester] |
| 2 µg/mL (≈ 4.95 µM) | CCNC(=O)Nc1cc2c(-c3ccnc(C#N)c3)ccc(CNC(=O)OC)c2cn1 [Example 197, [5-(2-cyano-pyridin-4-yl)-3-(3-ethyl-ureido)-isoquinolin-8-ylmethyl]-carbamic acid methyl ester] |
